The assay deals with KRas G12D-mediated phosphorylation of ERK. Briefly: Inhibition of KRas G12D-mediated phosphorylation of ERK in AGS cells. Particulars: Homo sapiens; AGS cells expressing G12D, 3 hours, phospho-ERK normalized to GAPDH. In kind it is cell-based. The method in brief:
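Fixed, methanol-permeabilized; phospho-ERK (Thr202/Tyr204) by in-cell immunofluorescence normalized to GAPDH. Percent of DMSO control, IC50 by 4-parameter fit.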

One may read the IC50 as the concentration that gives 50% inhibition. Low readings indicate inhibition by little substance, high ones a need for much substance.

Compound `Fc1c(-c2cccc3cccc(Cl)c23)ncc2c(N3C[C@H]4CC[C@@H](C3)N4)nc(OCCCN3C[C@@H]4C[C@H]3CO4)nc12` [Example 103, (1S,4S)-5-(3-((4-((1R,5S)-3,8-diazabicyclo[3.2.1]octan-3-yl)-7-(8-chloronaphthalen-1-yl)-8-fluoropyrido[4,3-d]pyrimidin-2-yl)oxy)propyl)-2-oxa-5-azabicyclo[2.2.1]heptane] registered an IC50 of more than 16700 nM.

With `CN1CCC[C@H]1COc1nc(N2CC3CCC(CO)(C2)N3)c2cnc(-c3cc(O)cc4ccccc34)c(F)c2n1` (stereo partly drawn) [Example 215, 4-(8-fluoro-4-(1-(hydroxymethyl)-3,8-diazabicyclo[3.2.1]octan-3-yl)-2-(((S)-1-methylpyrrolidin-2-yl)methoxy)pyrido[4,3-d]pyrimidin-7-yl)naphthalen-2-ol bis(2,2,2-trifluoroacetate)], the IC50 was more than 16700 nM. Turning to `Fc1c(-c2cccc3ccccc23)ncc2c(N3C[C@H]4CC[C@@H](C3)N4)nc(OCC34CCCN3CCC4)nc12` [Example 186, 4-((1R,5S)-3,8-diazabicyclo[3.2.1]octan-3-yl)-8-fluoro-7-(naphthalen-1-yl)-2-((tetrahydro-1H-pyrrolizin-7a(5H)-yl)methoxy)pyrido[4,3-d]pyrimidine], the IC50 was determined as 3380 nM. In the case of `Fc1c(-c2cccc3cccc(C4CC4)c23)ncc2c(N3C[C@H]4CC[C@@H](C3)N4)nc(OCC34CCCN3CCC4)nc12` [Example 335, 4-((1R,5S)-3,8-diazabicyclo[3.2.1]octan-3-yl)-7-(8-cyclopropylnaphthalen-1-yl)-8-fluoro-2-((tetrahydro-1H-pyrrolizin-7a(5H)-yl)methoxy)pyrido[4,3-d]pyrimidine] it was 10400 nM; in that of `Fc1c(-c2cccc(Cl)c2C2CC2)ncc2c(N3C[C@H]4CC[C@@H](C3)N4)nc(OCC34CCCN3CCC4)nc12` [Example 322, 4-((1R,5S)-3,8-diazabicyclo[3.2.1]octan-3-yl)-7-(3-chloro-2-cyclopropylphenyl)-8-fluoro-2-((tetrahydro-1H-pyrrolizin-7a(5H)-yl)methoxy)pyrido[4,3-d]pyrimidine], 665 nM; in that of `C#Cc1c(F)ccc2cccc(-c3ncc4c(N5C[C@H]6CC[C@@H](C5)N6)nc(OC[C@@]56CCCN5C[C@H](F)C6)nc4c3F)c12` [Example 281, 4-((1R,5S)-3,8-diazabicyclo[3.2.1]octan-3-yl)-7-(8-ethynyl-7-fluoronaphthalen-1-yl)-8-fluoro-2-(((2R,7aS)-2-fluorohexahydro-1H-pyrrolizin-7a-yl)methoxy)pyrido[4,3-d]pyrimidine], 97.8 nM. Next, `Oc1cc(-c2ncc3c(N4C[C@H]5CC[C@@H](C4)N5)nc(OC[C@@]45CCCN4C[C@H](F)C5)nc3c2F)c2c(F)cccc2c1` [Example 282, 4-(4-((1R,5S)-3,8-diazabicyclo[3.2.1]octan-3-yl)-8-fluoro-2-(((2R,7aS)-2-fluorohexahydro-1H-pyrrolizin-7a-yl)methoxy)pyrido[4,3-d]pyrimidin-7-yl)-5-fluoronaphthalen-2-ol]: 4.9 nM.

In turn, `CN1CCC[C@H]1COc1nc(N2C[C@H]3CC[C@@H](C2)N3)c2cnc(-c3cccc4ccc(F)c(Cl)c34)c(F)c2n1` [Example 44, 4-((1R,5S)-3,8-diazabicyclo[3.2.1]octan-3-yl)-7-(8-chloro-7-fluoronaphthalen-1-yl)-8-fluoro-2-(((S)-1-methylpyrrolidin-2-yl)methoxy)pyrido[4,3-d]pyrimidine] yielded an IC50 of 2290 nM. In the case of `CC1(N)CN(c2nc(N3C[C@H]4CC[C@@H](C3)N4)c3cnc(-c4cc(O)cc5ccccc45)c(F)c3n2)C1` [Example 124, 4-(2-(3-amino-3-methylazetidin-1-yl)-4-((1R,5S)-3,8-diazabicyclo[3.2.1]octan-3-yl)-8-fluoropyrido[4,3-d]pyrimidin-7-yl)naphthalen-2-ol] it was 11100 nM; in that of `Fc1c(-c2cccc3cccc(Cl)c23)ncc2c(N3CC4CCC(C3)N4)nc(OC[C@@]34CCCN3C[C@H](F)C4)nc12` (stereo in doubt) [Example 134, 4-((1R,5S)-3,8-diazabicyclo[3.2.1]octan-3-yl)-7-(8-chloronaphthalen-1-yl)-8-fluoro-2-((2-fluorotetrahydro-1H-pyrrolizin-7a(5H)-yl)methoxy)pyrido[4,3-d]pyrimidine], 895 nM; in that of `CS(=O)(=O)NC[C@H]1CC[C@@]2(COc3nc(N4C[C@H]5CC[C@@H](C4)N5)c4cnc(-c5cccc6cccc(Cl)c56)c(F)c4n3)CCCN12` [Example 420, N-(((3R,7aR)-7a-(((4-((1R,5S)-3,8-diazabicyclo[3.2.1]octan-3-yl)-7-(8-chloronaphthalen-1-yl)-8-fluoropyrido[4,3-d]pyrimidin-2-yl)oxy)methyl)hexahydro-1H-pyrrolizin-3-yl)methyl)methanesulfonamide], 7820 nM. Next, `Fc1c(-c2cccc3cccc(OC(F)F)c23)ncc2c(N3C[C@H]4CC[C@@H](C3)N4)nc(OCC34CCCN3CCC4)nc12` [Example 346, 4-((1R,5S)-3,8-diazabicyclo[3.2.1]octan-3-yl)-7-(8-(difluoromethoxy)naphthalen-1-yl)-8-fluoro-2-((tetrahydro-1H-pyrrolizin-7a(5H)-yl)methoxy)pyrido[4,3-d]pyrimidine]: 1350 nM.

Compound `CN1CCC[C@H]1COc1nc(N2CC3CCC(C=O)(C2)N3)c2cnc(-c3cc(O)cc4ccccc34)c(F)c2n1` (stereo partly drawn) [Example 214, 3-(8-fluoro-7-(3-hydroxynaphthalen-1-yl)-2-(((S)-1-methylpyrrolidin-2-yl)methoxy)pyrido[4,3-d]pyrimidin-4-yl)-3,8-diazabicyclo[3.2.1]octane-1-carbaldehyde] returned an IC50 of more than 16700 nM.

On to `Cc1c(-c2cc(O)cc3ccccc23)ncc2c(N3C[C@H]4CC[C@@H](C3)N4)nc(OC[C@@H]3CCCN3C)nc12` [Example 190, 4-(4-((1R,5S)-3,8-diazabicyclo[3.2.1]octan-3-yl)-8-methyl-2-(((S)-1-methylpyrrolidin-2-yl)methoxy)pyrido[4,3-d]pyrimidin-7-yl)naphthalen-2-ol], for which 16300 nM corresponded to half-maximal inhibition (IC50). Next, `Oc1cc(-c2ncc3c(N4CC5CCC(C4)N5)nc(OCC45CCCN4C[C@H](F)C5)nc3c2F)c2c(Cl)cccc2c1` (mixture of isomers) [Example 330, 4-(4-((1R,5S)-3,8-diazabicyclo[3.2.1]octan-3-yl)-8-fluoro-2-((2-fluorotetrahydro-1H-pyrrolizin-7a(5H)-yl)methoxy)pyrido[4,3-d]pyrimidin-7-yl)-5-chloronaphthalen-2-ol]: 11.8 nM; `CN1CCC[C@H]1CCOc1nc(N2C[C@H]3CC[C@@H](C2)N3)c2cnc(-c3cc(O)cc4ccccc34)c(F)c2n1` [Example 10, 4-(4-((1R,5S)-3,8-diazabicyclo[3.2.1]octan-3-yl)-8-fluoro-2-(2-((S)-1-methylpyrrolidin-2-yl)ethoxy)pyrido[4,3-d]pyrimidin-7-yl)naphthalen-2-ol]: 8120 nM.

Regarding `CN1CCC[C@H]1COc1nc(N2CC3CCC(CCC#N)(C2)N3)c2cnc(-c3cc(O)cc4ccccc34)c(F)c2n1` (stereo partly drawn) [Example 157, 3-(3-(8-fluoro-7-(3-hydroxynaphthalen-1-yl)-2-(((S)-1-methylpyrrolidin-2-yl)methoxy)pyrido[4,3-d]pyrimidin-4-yl)-3,8-diazabicyclo[3.2.1]octan-1-yl)propanenitrile bis(2,2,2-trifluoroacetate)], 8000 nM corresponded to half-maximal inhibition (IC50). Compound `CCCc1cccc2cccc(-c3ncc4c(N5C[C@H]6CC[C@@H](C5)N6)nc(OCC56CCCN5CCC6)nc4c3F)c12` [Example 254, 4-((1R,5S)-3,8-diazabicyclo[3.2.1]octan-3-yl)-8-fluoro-2-((hexahydro-1H-pyrrolizin-7a-yl)methoxy)-7-(8-propylnaphthalen-1-yl)pyrido[4,3-d]pyrimidine] registered a half-maximal inhibitory concentration (IC50) of 2430 nM. Against the preceding compound, the IC50 is about 3.3-fold lower.

`C[C@@H]1C[C@@H]1c1ccccc1-c1ncc2c(N3C[C@H]4CC[C@@H](C3)N4)nc(OCC34CCCN3CCC4)nc2c1F` [Example 286, 4-((1R,5S)-3,8-diazabicyclo[3.2.1]octan-3-yl)-8-fluoro-2-((hexahydro-1H-pyrrolizin-7a-yl)methoxy)-7-(2-((1S,2R)-2-methylcyclopropyl)phenyl)pyrido[4,3-d]pyrimidine] had an IC50 of 1730 nM. Next, `C#Cc1cccc2cc(O)cc(-c3ncc4c(N5C[C@H]6CC[C@@H](C5)N6)nc(OCC56CCCN5CCC6)nc4c3F)c12` [Example 185, 4-(4-((1R,5S)-3,8-diazabicyclo[3.2.1]octan-3-yl)-8-fluoro-2-((hexahydro-1H-pyrrolizin-7a-yl)methoxy)pyrido[4,3-d]pyrimidin-7-yl)-5-ethynylnaphthalen-2-ol]: 7.1 nM; `COC1CN2CCCC2(COc2nc(N3CC4CCC(C3)N4)c3cnc(-c4cc(O)cc5cccc(F)c45)c(F)c3n2)C1` (mixture of isomers) [Example 388, 4-(4-((1R,5S)-3,8-diazabicyclo[3.2.1]octan-3-yl)-8-fluoro-2-((2-methoxytetrahydro-1H-pyrrolizin-7a(5H)-yl)methoxy)pyrido[4,3-d]pyrimidin-7-yl)-5-fluoronaphthalen-2-ol (mixture of trans diastereomers)]: 40.2 nM.

Turning to `CC(C)c1c(Cl)cc(O)cc1-c1ncc2c(N3C[C@H]4CC[C@@H](C3)N4)nc(OC[C@@]34CCCN3C[C@H](F)C4)nc2c1F` [Example 291, 3-(4-((1R,5S)-3,8-diazabicyclo[3.2.1]octan-3-yl)-8-fluoro-2-(((2R,7aS)-2-fluorohexahydro-1H-pyrrolizin-7a-yl)methoxy)pyrido[4,3-d]pyrimidin-7-yl)-5-chloro-4-isopropylphenol], the IC50 stood at 46.5 nM. In the case of `CN1CCC[C@H]1COc1nc(N2CC3C[C@@H](O)C(C2)N3)c2cnc(-c3cc(O)cc4ccccc34)c(F)c2n1` (stereo partly drawn) [Example 31, 3-(8-fluoro-7-(3-hydroxynaphthalen-1-yl)-2-(((S)-1-methylpyrrolidin-2-yl)methoxy)pyrido[4,3-d]pyrimidin-4-yl)-3,8-diazabicyclo[3.2.1]octan-6-ol] it was 2430 nM.
